Assay results: patent US20250340551A1, “SMALL MOLECULE MODULATORS OF STAT6” (Gilead Sciences, Inc., priority 2024, published 2025)

target: human STAT6 (Homo sapiens (Human), UniProt P42226); assay: Surface plasmon resonance assay (Biacore 8K, binding to immobilized STAT6); conditions: human STAT6 aa122-658, N-terminal His-tag, CM5 chip, 25° C.; geometric mean; read-out: STAT6 SPR Kd
Method: Biacore instruments from the 8K-series (Cytiva) were used, and measurements were performed at 25° C. Human STAT6 (truncated, aa122-658, with N-terminal His-tag, expressed in insect cells) was immobilized in the active flow cells on a CM5 chip using amine-coupling (default settings) at 10 μg/ml in 10 mM acetate buffer pH 5.5, at a contact time of 120-420 sec. and a flow rate of 10 μl/min. Reference flow cells were deactivated using blank immobilization. PBS-P+ (Cytiva) supplemented with 2% DMSO was used as running buffer, and solvent correction was applied. Compounds were tested by multi-cycle kinetics injections using a contact time of 60 sec., dissociation time of up to 300 sec., and a flow rate of 30 μl/min.
Solvent-corrected, reference-subtracted and blank-corrected data was processed and binding isotherms were fitted according to a single report point from each sensorgram (Standard: Late binding (5 sec. before injection end); alternative: Earlier report point according to binding profile). Data fitting was done both with unfixed Rmax and with Rmax fixed to the theoretical value* assuming 1:1 binding to allow processing of data from both weak and strong binders as well as to evaluate binding stoichiometry.
Positive controls were run at the beginning, during, and at the end of the screen to evaluate surface activity.

human STAT6, sequence (P42226 122-658): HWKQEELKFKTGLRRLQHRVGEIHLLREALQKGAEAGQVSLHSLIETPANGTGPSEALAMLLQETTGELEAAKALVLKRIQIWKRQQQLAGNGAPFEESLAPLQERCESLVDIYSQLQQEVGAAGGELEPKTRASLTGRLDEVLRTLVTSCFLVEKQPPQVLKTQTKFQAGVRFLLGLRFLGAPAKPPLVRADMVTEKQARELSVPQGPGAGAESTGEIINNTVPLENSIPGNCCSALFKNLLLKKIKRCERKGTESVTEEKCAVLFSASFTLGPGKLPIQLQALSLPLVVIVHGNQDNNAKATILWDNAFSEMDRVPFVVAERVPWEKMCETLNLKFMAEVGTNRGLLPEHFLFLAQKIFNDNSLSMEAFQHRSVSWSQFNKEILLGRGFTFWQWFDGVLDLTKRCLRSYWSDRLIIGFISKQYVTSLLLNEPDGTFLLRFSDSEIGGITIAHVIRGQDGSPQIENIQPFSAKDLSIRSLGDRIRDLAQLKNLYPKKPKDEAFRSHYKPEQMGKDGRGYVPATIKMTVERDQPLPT

Which Kd does the source give for `COC(=O)c1cc(N)ncc1-c1ccnc2c1cc(CN1CCC(c3ccc(C(=O)N(C)C)cc3)CC1)n2C` [Example 1k56, Methyl 2-amino-5-[2-[[4-[4-(dimethylcarbamoyl)phenyl]-1-piperidyl]methyl]-1-methyl-pyrrolo[2,3-b]pyridin-4-yl]pyridine-4-carboxylate] here?
Its Kd is 1400 nM.

`Cc1nc(-c2ccnc3c2cc(CN2CCC(c4ccc(C(=O)N(C)C)cc4)CC2)n3C)cnc1N` [Example 1k20, 4-[1-[[4-(5-Amino-6-methyl-pyrazin-2-yl)-1-methyl-pyrrolo[2,3-b]pyridin-2-yl]methyl]-4-piperidyl]-N,N-dimethyl-benzamide] was tested. Which Kd did it give?
Its Kd is 1510 nM.

With `C[C@H](c1cc2c(-c3ccc(N)nc3C#N)ccnc2n1C)N1CC=C(c2ccc(C(=O)N(C)C)cc2)CC1` [Example 1af23, (R)-4-(1-(1-(4-(6-amino-2-cyanopyridin-3-yl)-1-methyl-1H-pyrrolo[2,3-b]pyridin-2-yl)ethyl)-1,2,3,6-tetrahydropyridin-4-yl)-N,N-dimethylbenzamide] as the compound, how does the Kd read?
The Kd was 45.2 nM.

How did the Kd turn out when `CN(C)C(=O)c1ccc(C2CCN(Cc3cc4c(-c5ccc6[nH]cc(C(=O)C(F)(F)F)c6c5)ccnc4n3C)CC2)cc1` [Example 1m145, N,N-dimethyl-4-(1-((1-methyl-4-(3-(2,2,2-trifluoroacetyl)-1H-indol-5-yl)-1H-pyrrolo[2,3-b]pyridin-2-yl)methyl)piperidin-4-yl)benzamide] was run?
Its Kd is 253 nM.

`[2H]C([2H])([2H])N(C(=O)c1ccc(C2CCN(Cc3cc4c(-c5ccc(NC)nc5)ccnc4n3C)CC2)cc1)C([2H])([2H])[2H]` [Example 1k38, 4-[1-[[1-Methyl-4-[6-(methylamino)-3-pyridyl]pyrrolo[2,3-b]pyridin-2-yl]methyl]-4-piperidyl]-N,N-bis(trideuteriomethyl)benzamide] was tested. Which Kd did it give?
The Kd was 27.7 nM.

With `CNc1ccc(-c2ccnc3c2cc(C(C)N2CCC(c4ccc(C(=O)N(C)C)cc4)CC2)n3C)cn1` (stereo not drawn) [Example 1z13, N,N-dimethyl-4-(1-(1-(1-methyl-4-(6-(methylamino)pyridin-3-yl)-1H-pyrrolo[2,3-b]pyridin-2-yl)ethyl)piperidin-4-yl)benzamide] as the compound, how does the Kd read?
The Kd was 22.3 nM.

For `COCCNc1ccc(-c2ccnc3c2cc(CN2CCC(c4ccc(C(=O)N(C)C)cc4)CC2)n3C)cn1` [Example 1k59, 4-[1-[[4-[6-(2-Methoxyethylamino)-3-pyridyl]-1-methyl-pyrrolo[2,3-b]pyridin-2-yl]methyl]-4-piperidyl]-N,N-dimethyl-benzamide], which Kd is on record?
Its Kd is 57.3 nM.

`CN(C)C(=O)c1ccc(C2CCN(Cc3cc4c(-c5cnc(N)c(OC(F)(F)F)c5)ccnc4n3C)CC2)cc1` [Example 1k48, 4-[1-[[4-[6-Amino-5-(trifluoromethoxy)-3-pyridyl]-1-methyl-pyrrolo[2,3-b]pyridin-2-yl]methyl]-4-piperidyl]-N,N-dimethyl-benzamide] was tested. Which Kd did it give?
The Kd was 8230 nM.

With `CN(C)C(=O)c1ccc(C2CCN(Cc3cc4c(-c5cnc(N)c(C#N)c5)ccnc4n3C)CC2)cc1` [Example 1k21, 4-[1-[[4-(6-Amino-5-cyano-3-pyridyl)-1-methyl-pyrrolo[2,3-b]pyridin-2-yl]methyl]-4-piperidyl]-N,N-dimethyl-benzamide] as the compound, how does the Kd read?
The Kd was 935 nM.

Which Kd does the source give for `CN(C)C(=O)c1ccc(C2CCN(Cc3cc4c(-c5ccc(N)c(C#N)c5)ccnc4n3C)CC2)cc1` [Example 1k80, 4-(1-((4-(4-Amino-3-cyanophenyl)-1-methyl-1H-pyrrolo[2,3-b]pyridin-2-yl)methyl)piperidin-4-yl)-N,N-dimethylbenzamide] here?
Its Kd is 52.1 nM.

For `[2H]C([2H])([2H])N(C(=O)c1ccc(C2CCN([C@@H](C)c3cc4c(-c5ccc(N)nc5C#N)ccnc4n3C)CC2)cc1)C([2H])([2H])[2H]` [Example 1af29, (S)-4-(1-(1-(4-(6-Amino-2-cyanopyridin-3-yl)-1-methyl-1H-pyrrolo[2,3-b]pyridin-2-yl)ethyl)-piperidin-4-yl)-N,N-bis(methyl-d3)benzamide], which Kd is on record?
Its Kd is 645 nM.

Which Kd does the source give for `CN(C)C(=O)c1ccc(C2CCN(Cc3cc4c(-c5ccc(N)nc5)ccnc4n3C)CC2)cc1` [Example 1z19, 4-(1-((4-(6-aminopyridin-3-yl)-1-methyl-1H-pyrrolo[2,3-b]pyridin-2-yl)methyl)piperidin-4-yl)-N,N-dimethylbenzamide] here?
Its Kd is 22.3 nM.

For `CNc1ccc(-c2ccnc3c2cc(CN2CC=C(c4ccc(C(=O)N(C)C)cn4)CC2)n3C)cn1` [Example 1s11, N,N-Dimethyl-6-[1-[[1-methyl-4-[6-(methylamino)-3-pyridyl]pyrrolo[2,3-b]pyridin-2-yl]methyl]-3,6-dihydro-2H-pyridin-4-yl]pyridine-3-carboxamide], which Kd is on record?
The Kd was 133 nM.

For `[2H]C([2H])([2H])N(C(=O)c1ccc(C2=CCN([C@@H](C)c3cc4c(-c5ccc(N)cn5)ccnc4n3C)CC2)cc1)C([2H])([2H])[2H]` [Example 1af43, (S)-4-(1-(1-(4-(5-Aminopyridin-2-yl)-1-methyl-1H-pyrrolo[2,3-b]pyridin-2-yl)ethyl)-1,2,3,6-tetrahydropyridin-4-yl)-N,N-bis(methyl-d3)benzamide], which Kd is on record?
The Kd was 2950 nM.

For `CN(C)C(=O)c1ccc(C2CCN(Cc3cc4c(-c5ccc(N)c(O)n5)ccnc4n3C)CC2)cc1` [Example 1ad1, 4-(1-((4-(5-Amino-6-hydroxypyridin-2-yl)-1-methyl-1H-pyrrolo[2,3-b]pyridin-2-yl)methyl)piperidin-4-yl)-N,N-dimethylbenzamide], which Kd is on record?
The Kd was 79.4 nM.

How did the Kd turn out when `[2H]C([2H])([2H])N(C(=O)c1ccc(C2CCN(Cc3cc4c(-c5ccc(NC)cn5)ccnc4n3C)CC2)cc1)C([2H])([2H])[2H]` [Example 1k70, 4-[1-[[1-methyl-4-[5-(methylamino)-2-pyridyl]pyrrolo[2,3-b]pyridin-2-yl]methyl]-4-piperidyl]-N,N-bis(trideuteriomethyl)benzamide] was run?
The Kd was 51.9 nM.

Which Kd does the source give for `CN(C)C(=O)c1ccc(C2CCN(Cc3cc4c(-c5cnc(N)cc5CO)ccnc4n3C)CC2)cc1` [Example 1k49, 4-[1-[[4-[6-Amino-4-(hydroxymethyl)-3-pyridyl]-1-methyl-pyrrolo[2,3-b]pyridin-2-yl]methyl]-4-piperidyl]-N,N-dimethyl-benzamide] here?
The Kd was 148 nM.

`Cc1cc(N)ncc1-c1ccnc2c1cc(CN1CCC(c3ccc(C(=O)N(C)C)cc3)CC1)n2C` [Example 1k30, 4-[1-[[4-(6-Amino-4-methyl-3-pyridyl)-1-methyl-pyrrolo[2,3-b]pyridin-2-yl]methyl]-4-piperidyl]-N,N-dimethyl-benzamide] was tested. Which Kd did it give?
The Kd was 62.1 nM.

How did the Kd turn out when `CN(C)C(=O)c1ccc(C2CCN(Cc3cc4c(-c5cnc(N)c(C(F)F)c5)ccnc4n3C)CC2)cc1` [Example 1k24, 4-[1-[[4-[6-Amino-5-(difluoromethyl)-3-pyridyl]-1-methyl-pyrrolo[2,3-b]pyridin-2-yl]methyl]-4-piperidyl]-N,N-dimethyl-benzamide] was run?
The Kd was 336 nM.

For `CN(C)C(=O)c1ccc(C2CCN(Cc3cc4c(-c5ccc(N)nc5C(F)(F)F)ccnc4n3C)CC2)cc1` [Example 1k17, 4-[1-[[4-[6-Amino-2-(trifluoromethyl)-3-pyridyl]-1-methyl-pyrrolo[2,3-b]pyridin-2-yl]methyl]-4-piperidyl]-N,N-dimethyl-benzamide], which Kd is on record?
The Kd was 212 nM.

With `CNc1ccc(-c2ccnc3c2cc(CN2CCC(n4ccc(C(=O)N(C)C)cc4=O)CC2)n3C)cn1` [Example 1s6, N,N-Dimethyl-1-[1-[[1-methyl-4-[6-(methylamino)-3-pyridyl]pyrrolo[2,3-b]pyridin-2-yl]methyl]-4-piperidyl]-2-oxo-pyridine-4-carboxamide] as the compound, how does the Kd read?
Its Kd is 595 nM.

With `CN(C)C(=O)c1ccc(C2CCN(Cc3cc4c(-c5cnc(N)c(S(C)(=O)=O)c5)ccnc4n3C)CC2)cc1` [Example 1k25, 4-[1-[[4-(6-Amino-5-methylsulfonyl-3-pyridyl)-1-methyl-pyrrolo[2,3-b]pyridin-2-yl]methyl]-4-piperidyl]-N,N-dimethyl-benzamide] as the compound, how does the Kd read?
The Kd was 6050 nM.

For `C[C@@H](c1cc2c(-c3ccc(N)nc3C#N)ccnc2n1C)N1CC=C(c2ccc(C(=O)N(C)C)cc2)CC1` [Example 1af21, (S)-4-(1-(1-(4-(6-amino-2-cyanopyridin-3-yl)-1-methyl-1H-pyrrolo[2,3-b]pyridin-2-yl)ethyl)-1,2,3,6-tetrahydropyridin-4-yl)-N,N-dimethylbenzamide], which Kd is on record?
Its Kd is 8660 nM.

With `Cc1cc(C(=O)N(C)C)ccc1C1CCN([C@@H](C)c2cc3c(-c4ccc(N)cn4)ccnc3n2C)CC1` [Example 1af17, (S)-4-(1-(1-(4-(5-aminopyridin-2-yl)-1-methyl-1H-pyrrolo[2,3-b]pyridin-2-yl)ethyl)piperidin-4-yl)-N,N,3-trimethylbenzamide] as the compound, how does the Kd read?
Its Kd is 6400 nM.

With `CN(C)C(=O)c1ccc(C2CCN(Cc3cc4c(-c5cnc(N)nn5)ccnc4n3C)CC2)cc1` [Example 1k54, 4-[1-[[4-(3-Amino-1,2,4-triazin-6-yl)-1-methyl-pyrrolo[2,3-b]pyridin-2-yl]methyl]-4-piperidyl]-N,N-dimethyl-benzamide] as the compound, how does the Kd read?
The Kd was 104 nM.

For `CN(C)C(=O)c1ccc(C2CCN(Cc3cc4c(-c5cnc(N)c(C(=O)O)c5)ccnc4n3C)CC2)cc1` [Example 1k9, 2-Amino-5-[2-[[4-[4-(dimethylcarbamoyl)phenyl]-1-piperidyl]methyl]-1-methyl-pyrrolo[2,3-b]pyridin-4-yl]pyridine-3-carboxylic acid], which Kd is on record?
The Kd was 144 nM.

For `CN(C)C(=O)c1ccc(C2CCN(Cc3cc4c(-c5cnc(N)c(C(F)(F)F)c5)ccnc4n3C)CC2)cc1` [Example 1k36, 4-[1-[[4-[6-Amino-5-(trifluoromethyl)-3-pyridyl]-1-methyl-pyrrolo[2,3-b]pyridin-2-yl]methyl]-4-piperidyl]-N,N-dimethyl-benzamide], which Kd is on record?
Its Kd is 1120 nM.
